According to US9113629B2, “4-amino-6-(4-substituted-phenyl)-picolinates and 6-amino-2-(4-substituted-phenyl)-pyrimidine-4-carboxylates and their use as herbicides” (DOW AGROSCIENCES LLC, priority 2013, dated 2015):
Where two headings read alike, the source gives them in different places.

How the values were obtained:
[1] = tested on: Key Grass and Sedge Weeds as well as Grass Crops; experiment: Post-emergent Test II herbicidal activity (Table 6); assay type: in vivo; settings: post-emergence, 336 h; for pest or weed control at 70 g/ha: application rate 70 g ai/ha; for pest or weed control at 140 g/ha: application rate 140 g ai/ha
Procedure, shortened: (§1)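 Injury was rated visually 14 d after treatment on a 0–100% scale against untreated controls. Test compounds, formulated with crop oil concentrate and surfactant and serially diluted down to 1/16× of the top rate, were applied by track sprayer at 187 L/ha onto first- to second-true-leaf seedlings.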

[2] = tested on: Key Broadleaf Weed and Crop Species; experiment: Post-emergent Test II herbicidal activity (Table 5); assay type: in vivo; settings: post-emergence, 336 h, post-emergent, 14 days after application; for pest or weed control at 70 g/ha: 70 g ai/ha; for pest or weed control at 140 g/ha: 140 g ai/ha
Procedure, shortened: as §1

[3] = CYPES: yellow nutsedge (Cyperus esculentus), read-out: Visual Growth Reduction (%) 14 Days After Application, CYPES
[4] = DIGSA: crabgrass (Digitaria sanguinalis), read-out: Visual Growth Reduction (%) 14 Days After Application, DIGSA
[5] = ECHCG: barnyardgrass (Echinochloa crus-galli), read-out: Visual Growth Reduction (%) 14 Days After Application, ECHCG
[6] = ORYSA: rice (Oryza sativa), read-out: Visual Growth Reduction (%) 14 Days After Application, ORYSA
[7] = SETFA: giant foxtail (Setaria faberi), read-out: Visual Growth Reduction (%) 14 Days After Application, SETFA
[8] = SORVU: grain sorghum (Sorghum vulgare), read-out: Visual Growth Reduction (%) 14 Days After Application, SORVU
[9] = TRZSS (wheat, Triticum aestivum), read-out: Visual Growth Reduction (%) 14 Days After Application, TRZSS
[10] = ZEAMX: maize, corn (Zea mays), read-out: Visual Growth Reduction (%) 14 Days After Application, ZEAMX
[11] = ABUTH: velvetleaf (Abutilon theophrasti), read-out: Visual Growth Reduction (%) 14 Days After Application ABUTH
[12] = AMARE: redroot pigweed (Amaranthus retroflexus), read-out: Visual Growth Reduction (%) 14 Days After Application AMARE
[13] = BRSNN: oilseed-rape, canola (Brassica napus), read-out: Visual Growth Reduction (%) 14 Days After Application BRSNN
[14] = CHEAL: lambsquarters (Chenopodium album), read-out: Visual Growth Reduction (%) 14 Days After Application CHEAL
[15] = EPHHL: wild poinsettia (Euphorbia heterophylla), read-out: Visual Growth Reduction (%) 14 Days After Application EPHHL
[16] = HELAN: sunflower (Helianthus annuus), read-out: Visual Growth Reduction (%) 14 Days After Application HELAN
[17] = VIOTR: wild pansy (Viola tricolor), read-out: Visual Growth Reduction (%) 14 Days After Application VIOTR

Row | melting point | Structure (SMILES) | pest or weed control at 70 g/ha [1, 3] | pest or weed control at 140 g/ha [1, 3] | pest or weed control at 70 g/ha [1, 4] | pest or weed control at 140 g/ha [1, 4] | pest or weed control at 70 g/ha [1, 5] | pest or weed control at 140 g/ha [1, 5] | pest or weed control at 70 g/ha [1, 6] | pest or weed control at 140 g/ha [1, 6] | pest or weed control at 70 g/ha [1, 7] | pest or weed control at 140 g/ha [1, 7] | pest or weed control at 70 g/ha [1, 8] | pest or weed control at 140 g/ha [1, 8] | pest or weed control at 70 g/ha [1, 9] | pest or weed control at 140 g/ha [1, 9] | pest or weed control at 70 g/ha [1, 10] | pest or weed control at 140 g/ha [1, 10] | pest or weed control at 70 g/ha [2, 11] | pest or weed control at 140 g/ha [2, 11] | pest or weed control at 70 g/ha [2, 12] | other results
1 | 209.7 to 211.9 °C | COC(=O)c1nc(-c2cc(F)c(C#N)cc2F)cc(N)c1Cl [Compound 202] | 85 to 94% | 85 to 94% | 30 to 44% | 60 to 74% | 60 to 74% | 95 to 100% | 0 to 29% | 0 to 29% | 60 to 74% | 60 to 74% | 60 to 74% | 85 to 94% | 60 to 74% | 75 to 84% | 30 to 44% | 45 to 59% | 95 to 100% | 95 to 100% | 95 to 100% | pest or weed control at 140 g/ha [2, 12]: 95 to 100%; pest or weed control at 70 g/ha [2, 13]: 75 to 84%; pest or weed control at 140 g/ha [2, 13]: 85 to 94%; pest or weed control at 70 g/ha [2, 14]: 95 to 100%; pest or weed control at 140 g/ha [2, 14]: 95 to 100%; pest or weed control at 70 g/ha [2, 15]: 95 to 100%; pest or weed control at 140 g/ha [2, 15]: 95 to 100%; pest or weed control at 70 g/ha [2, 16]: 95 to 100%; pest or weed control at 140 g/ha [2, 16]: 95 to 100%; pest or weed control at 70 g/ha [2, 17]: 60 to 74%; pest or weed control at 140 g/ha [2, 17]: 60 to 74%
2 | 176.2 to 178.7 °C | COC(=O)c1nc(-c2c(F)cc(I)c(F)c2F)cc(N)c1Cl [Compound 90] | 95 to 100% | 95 to 100% | 85 to 94% | 75 to 84% | 85 to 94% | 85 to 94% | 30 to 44% | 0 to 29% | 85 to 94% | 85 to 94% | 95 to 100% | 95 to 100% | 30 to 44% | 45 to 59% | 60 to 74% | 60 to 74% | 85 to 94% | 85 to 94% | 95 to 100% | pest or weed control at 140 g/ha [2, 12]: 95 to 100%; pest or weed control at 70 g/ha [2, 13]: 95 to 100%; pest or weed control at 140 g/ha [2, 13]: 95 to 100%; pest or weed control at 70 g/ha [2, 14]: 95 to 100%; pest or weed control at 140 g/ha [2, 14]: 95 to 100%; pest or weed control at 70 g/ha [2, 15]: 95 to 100%; pest or weed control at 140 g/ha [2, 15]: 95 to 100%; pest or weed control at 70 g/ha [2, 16]: 30 to 44%; pest or weed control at 140 g/ha [2, 16]: 75 to 84%; pest or weed control at 70 g/ha [2, 17]: 95 to 100%; pest or weed control at 140 g/ha [2, 17]: 95 to 100%
